Measured values as given in US4659732A, “Lipoxygenase inhibiting 1-arylalkyl-, 1-arylthio-, and 1-aryloxypyrazole-4,5-diones” (Bayer Aktiengesellschaft, priority 1984, dated 1987).

Columns and labels:
leucocyte stickiness = assay: Stickiness of leucocytes in hamster cheek pouch; assay type: in vivo, Male Syrian golden hamsters; settings: Effect after administration of 1 mg/kg i.a.
Excerpt: The reduction in the leucocyte stickiness is also responsible for the decrease in ischaemic areas since, after treatment with the compounds to be used according to the invention, the leucocytes pass through the microcirculatory region of these areas without reducing the supply to the corresponding tissue by totally or temporarily closing small vessels or capillaries.
The number of leucocytes which pass through a certain section of a vessel serves as a simple model for measuring the stickiness of leucocytes (Bray, M. A. et al., Prostaglandins, 22, 213, 1981). The less sticky these cells are, the greater is the number of leucocytes counted.
Male Syrian golden hamsters (80-100 g) were anaesthetized with nembutal (i.p.; 60 mg/kg). After fixing a PE 10 catheter in the A.femoralis, the animal is laid on a Duling dissection stage (MVR 5, 423, 1973) and the right cheek pouch is drawn out by inserting a Q-tip. It is carefully drawn into that part of the stage which is intended for this purpose, and is stretched out and fixed. From the beginning of the preparation procedure, the prepared cheek pouch is rinsed over with 5 ml/minute of superfusate. The temperature of the solution is 36° C. While protecting the vessels, the upper layer of tissue is cut longitudinally and folded to the side. Under about 200 times magnification, an area of about 1 cm^2 of connective tissue is carefully exposed. The animal, together with the dissection stage, is placed on the microscope stage. A thermocouple is inserted into the left cheek pouch. The body temperature of the animal is monitored in this manner and maintained within +0.3° C. with the aid of an IR lamp (240 watt).
Measurement of the leucocyte stickiness is carried out under a magnification of about 500 times. A small vein (30-40 μm .phi.) is selected in the exposed area. Over a certain section of this vessel, the number of leucocytes passing by per unit time (min.) is counted.

5-lipoxygenase = target: T1, 5-lipoxygenase (Homo sapiens, UniProt P09917); assay: Inhibition of LTB4 synthesis in human PMN leucocytes (A 23 187 stimulated); assay type: cell-based; settings: for inhibition at 1 µg/mL: 1 μg/ml; for inhibition at 0.5 µg/mL: 0.5 μg/ml; for inhibition at 5 µg/mL: 5 μg/ml; for inhibition at 0.1 µg/mL: 0.1 μg/ml
T1 construct: The human polymorphonuclear leucocytes metabolize the arachidonic acid to give 5-hydroxy-5,8,11,14-eicosatetraenoic acid (5-HETE) and leucotriene B4; endogenous in cells; host or cells: human PMN leucocytes from heparinized whole blood
T1 sequence (P09917 1-674): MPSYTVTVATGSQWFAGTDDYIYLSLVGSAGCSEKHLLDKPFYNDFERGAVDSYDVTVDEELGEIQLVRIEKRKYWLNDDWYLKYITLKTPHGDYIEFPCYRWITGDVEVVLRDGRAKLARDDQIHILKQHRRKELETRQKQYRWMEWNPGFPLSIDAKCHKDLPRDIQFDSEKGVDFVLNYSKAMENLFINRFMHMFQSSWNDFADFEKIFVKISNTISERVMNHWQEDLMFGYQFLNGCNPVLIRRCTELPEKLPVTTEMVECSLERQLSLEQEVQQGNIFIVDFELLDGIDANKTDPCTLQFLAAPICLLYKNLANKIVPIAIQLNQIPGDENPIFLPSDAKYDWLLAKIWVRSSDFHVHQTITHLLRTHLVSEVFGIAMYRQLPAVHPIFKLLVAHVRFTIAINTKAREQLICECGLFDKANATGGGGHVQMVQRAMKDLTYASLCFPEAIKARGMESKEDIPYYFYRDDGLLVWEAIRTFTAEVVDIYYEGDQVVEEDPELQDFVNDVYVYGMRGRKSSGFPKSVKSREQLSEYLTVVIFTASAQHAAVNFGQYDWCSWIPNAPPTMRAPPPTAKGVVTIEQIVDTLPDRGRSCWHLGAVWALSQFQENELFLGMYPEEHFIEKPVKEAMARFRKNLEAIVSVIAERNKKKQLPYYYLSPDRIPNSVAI
Protocol: The 5-lipoxygenase responsible for the biosynthesis of the leucotrienes B4, C4 and D4 is inhibited selectively at low concentrations. […] Inhibition of the liberation of 5-HETE and leucotriene B4 from the leucocytes constitutes a measure of the lipoxygenase-inhibiting effect of the compounds according to the invention (see Table 1). The test with the human leucocytes was carried out in accordance with Borgeat and Samuelsson (J. Biol. Chem. 254, 2643, 1979, and Proc. Natl. Acad. Sci. USA, 76, 2148, 1979). The human PMN leucocytes (>95%) used in the present example were obtained from heparinized whole blood by dextran sedimentation and subsequent density gradient separation (Ficoll-Paque) (see A. Boyum, Scand. J. Immunol., 5, Suppl. 5, 9, 1976). 2×10^7 cells/ml were suspended in Ca^2+ -containing Dulbecco phosphate buffer and stimulated in the presence and absence of lipoxygenase inhibitors, with the calcium ionophore A 23 187. After 15 minutes, the lipoxygenase products were extracted from the acidified incubation medium and separated by means of HPLC.

cyclooxygenase = settings: known lipoxygenase inhibitors; cited from earlier work
[1] = administered systemically (for example orally); cited from earlier work
myocardial infarct = assay: Myocardial infarct after acute ligature of a coronary artery; assay type: in vivo; settings: dog
Protocol: The actions of various pyrazoledione derivatives on the experimental myocardial infarct in the dog were investigated after acute ligature of a coronary artery. In pentobarbital-anaesthetised dogs, the proximal left anterior descending coronary artery (LAD) […] occluded for 6 hours. The artery was not reperfused. One hour prior to ligature, the test compounds in 1% tyclose suspension were administered intraduodenally as a bolus. The same procedure was adopted for the controls, except that no active compound was administered. The size of the infarct and the area of perfusion of the LAD were determined biochemically by means of a dual perfusion method using Evans Blue and triphenyltetrazolium chloride. […] This could be observed both with respect to the absolute infarct weight and the infarct size relative to the weight of the left ventricule. Initially, the blood pressure decreased as a result of the coronary ligature, and this led to a reflectory increase in the heart rate.

| SMILES | inhibition at 1 µg/mL (5-lipoxygenase) [%] | inhibition at 0.5 µg/mL (5-lipoxygenase) [%] | inhibition at 5 µg/mL (5-lipoxygenase) [%] | inhibition at 0.1 µg/mL (5-lipoxygenase) [%] | haemodynamic effects (myocardial infarct; LAD ligature, intraduodenal) | Inhibition of leucocyte stickiness (leucocyte stickiness) | cyclooxygenase inhibition (cyclooxygenase) | toxic side effects [1] | infarct size (myocardial infarct; gradual LAD occlusion 6 hours, intraduodenal bolus one hour prior to ligature, absolute infarct weight and relative to left ventricle weight) |
| --- | --- | --- | --- | --- | --- | --- | --- | --- | --- |
| CC1=NN(C(C)c2ccc3c(c2)CCCC3)C(=O)C1=O (stereo not drawn) [Example 7] | 21 | 10 | 100 |  |  | inhibition |  |  |  |
| CC1=NN(CCOc2ccc3ccccc3c2)C(=O)C1=O [Example 1, 3-Methyl-1-[2-(2-naphthyloxy)-ethyl]-2-pyrazole-4,5-dione] | 85 | 60 | 100 | 29 |  | inhibition |  |  |  |
| CC(Cc1ccc(O)c(O)c1)C(C)Cc1ccc(O)c(O)c1 (stereo not drawn) [nordihydroguaretic acid] |  |  |  |  |  |  | act as cyclooxygenase inhibitors either simultaneously or only at very high concentrations |  |  |
| NC1=NN(c2cccc(C(F)(F)F)c2)CC1 [3-amino-1-(3-trifluoromethylphenyl)-2-pyrazoline] |  |  |  |  |  |  | act as cyclooxygenase inhibitors either simultaneously or only at very high concentrations | toxic side effects |  |
| CC1=NN(C(C)c2ccc(Cl)c(Cl)c2)C(=O)C1=O (stereo not drawn) [Example 5] | 29 | 12 | 84 |  |  | no action |  |  |  |
| COCC1=NN(CCOc2ccc3ccccc3c2)C(=O)C1=O [Example 4] | 60 | 47 | 100 | 15 |  | inhibition |  |  |  |
| COCC1=NN(C(C)c2ccc(Cl)c(Cl)c2)C(=O)C1=O (stereo not drawn) [Example 3] | 37 | 20 | 100 | 6 |  | no effect |  |  |  |
| C1=CSc2ccccc2N1 [4H-1,4-benzothiazine] |  |  |  |  | no haemodynamic effects |  |  |  | substantially reduced the infarct size |
| O=C1CCN(c2ccccc2)N1 [phenidone] |  |  |  |  |  |  | act as cyclooxygenase inhibitors either simultaneously or only at very high concentrations |  |  |
| CCCCCC=CCC=CCC=CCC=CCCCC(=O)O [5,8,11,14-eicosatetraenoic acid] |  |  |  |  |  |  | act as cyclooxygenase inhibitors either simultaneously or only at very high concentrations |  |  |

Second part, led by results:

| inhibition at 1 µg/mL (5-lipoxygenase) [%] | inhibition at 0.5 µg/mL (5-lipoxygenase) [%] | inhibition at 5 µg/mL (5-lipoxygenase) [%] | inhibition at 0.1 µg/mL (5-lipoxygenase) [%] | haemodynamic effects (myocardial infarct; LAD ligature, intraduodenal) | SMILES | Inhibition of leucocyte stickiness (leucocyte stickiness) | cyclooxygenase inhibition (cyclooxygenase) | toxic side effects [1] | infarct size (myocardial infarct; gradual LAD occlusion 6 hours, intraduodenal bolus one hour prior to ligature, absolute infarct weight and relative to left ventricle weight) |
| --- | --- | --- | --- | --- | --- | --- | --- | --- | --- |
| 12 |  |  |  |  | CC(C)(C)C1=NN(CCOc2ccccc2)C(=O)C1=O [Example 2] | inhibition |  |  |  |
| 35 | 10 | 100 |  |  | O=C1C(=O)N(CCOc2ccc3ccccc3c2)N=C1CC1CCCCC1 [Example 8] | no action |  |  |  |
| 56 | 12 | 100 |  |  | CCCC1=NN(CCOc2ccc3ccccc3c2)C(=O)C1=O [Example 10] | inhibition |  |  |  |
| 88 | 60 | 100 | 38 |  | CC1=NN(CCOc2ccccc2)C(=O)C1=O [Example 6] | no effect |  |  |  |
| 40 |  | 73 |  |  | CC1=NN(C(C)c2cccc(C(F)(F)F)c2)C(=O)C1=O (stereo not drawn) [Example 9] | no effect |  |  |  |
| 29 |  | 32 |  |  | CC1=NN(C(C)C2CCCCC2)C(=O)C1=O (stereo not drawn) [Example 11] | inhibition |  |  |  |
